IC50 data for one molecule are collected here from ChEMBL document CHEMBL6071147, “A novel 7-phenoxy-benzimidazole derivative as a potent and orally available BRD4 inhibitor for the treatment of melanoma” (Bioorg Med Chem, 2024).

This test has as its target Bromodomain testis-specific protein (Homo sapiens, UniProt Q58F21). Briefly: Displacement of [Lys(5,8,12,16)Ac]H4(1 to 21)-biotin from BRDT-BD1 (unknown origin) by TR-FRET assay. (In general: TR-FRET usually uses a lanthanide donor and a delayed reading to cut background.)

As a reminder, the pIC50 is the IC50 on a negative log10 scale, so that one unit is a factor of ten. High values mean a small IC50, low ones a large IC50.

pIC50: −log10 of the molar value.

On to `Cn1cc(-c2ccc3nc(C4CCOCC4)[nH]c3c2Oc2ccccc2)ccc1=O`, for which the pIC50 is 7.66.
